Reference: US20250312469A1 (CANGET BIOTEKPHARMA, priority 2024, published 2025)

Columns and labels:
[1] = system: other 109 ubiquitin-related proteins/enzymes; assay: ProtoArray protein microarray probed with 3H-FL118; type: binding, human
Protocol: The flask was then immersed in silicone oil bath at 180° C.-190° C. for 6 hours. The tritium gas was removed. The reaction mixture was dissolved in 1 mL of DMSO and back-exchanged 10× with 50% ethanol. Injected directly to CapCeLL PAK C-18 column (4.6×250 mm), mobile phase 30% CH3CN, 0.1% TFA, flow 1 mL/min, U.V. =200 nm, r.t. =40 min. After purification, total activity was 5 mCi (solid) with a specificity of 5.6 Ci/mmol at a radiochemical purity of >97% for ^3H-FL118. […] The flask was then immersed in silicone oil bath at 190° C. for 24 h. The tritium gas was removed. The reaction mixture was dissolved in 1 mL of DMSO and back-exchanged 10× with 50% ethanol and injected directly to CapCeLL Pak C-18 column (4.6×250 mm), mobile phase 30% CH3CN, 0.1% TFA, […], U.V. =200 nm, r.t. =40 min. After purification total activity was 5 mCi (solid) with a specificity of 16.5 Ci/mmol at a radiochemical purity of ≥81% for ^3H-FL118.
Use of ^3H-FL118 as a radioactive probe to search FL118-binding proteins through screening of human protein microarray (ProtoArray R with 9,400 human proteins, Invitrogen): The study process includes the following steps.
1. Blocking the ProtoArray: (i) Immediately place the mailer containing the Human Protein Microarray v5.0 at 4° C. upon removal from storage at −20° C. and equilibrate the mailer at 4° C. for at least 15 minutes prior to use. […]

[2] = system: p53, Mdm2, AR, AR-Vs, c-Myc, MdmX; assay: Western blot/RT-PCR of p53, Mdm2, AR, AR-Vs, c-Myc, MdmX in PCa cells; type: cell-based, human
Protocol: Cells were then lysed to determine the expression of AR, AR-Vs, p53, p21, Mdm2, MdmX, and c-Myc as well as PARP cleavage (apoptosis hallmark) using their corresponding antibodies by WB.
Twenty to fifty μg total protein from each sample (cell lysis or tumor tissue lysis) were heated at 95° C. for 5 minutes after mixing with equal volumes of 2× SDS loading buffer. […] Next, the membrane was incubated with different primary antibodies in TBS-T containing 5% BSA overnight at 4° C. in the range of dilutions from 1:500 to 1:2000 based on the antibody dilution recommended by antibody firms. […] Proteins of interest were detected using Western Lightning ECL-Plus (Perkin Elmer, Waltham, MA) and visualized by various times (3-120 seconds) of exposure. Actin, tubulin and/or GAPDH were detected as the internal control to normalize total protein loading for each sample.
Pertinent to this study, total RNAs were extracted from cancer cells using TRI REAGENT RT (Molecular Research Center), and 5 μg per sample was converted to cDNA with anchored oligo (dT) primers using RevertAid First Strand cDNA Synthesis Kit (Thermo Fisher Scientific, Catalog No. K1622) following the manufacturer's instructions. […] The data were analyzed using the Applied Biosystems 7300 Real Time PCR System and normalized to GAPDH.

DU145 xenografts = assay: DU145 xenograft tumor model; conditions: 8 mg/kg oral, weekly×4
DDX5 = DDX5 (Homo sapiens, UniProt P17844); assay: Immunoprecipitation/Western blot of DDX5 in Mia Paca-2 and SW620 cells; type: cell-based; design: endogenous in cells; Mia Paca-2 and SW620 (IP/Western)
Protocol: Up to 10^7 cells for each time point/test were harvested with a scraper in cold PBS buffers and collected by centrifugation at 1000g×5 min and washed with cold PBS once. Cell pellets were lysed in 1 mL cold RIPA lysis buffer containing proteinase inhibitors (refer to Western blots). The cell lysates were precleared with centrifuging 14,000 rpm for 15 min. The resulting supernatants were transferred to a new 1.5 ml tube and incubated with up to 3 μg either DDX5 antibodies or normal IgG antibodies for 1 h at 4° C., followed by incubation with 20-40 μL 50% protein A/G-Agarose slurry overnight at 4° C. on a rocker platform. […]
For frozen prostate cancer tissue specimens and their adjacent non-tumor tissues (if any) obtained from Roswell Park pathology network, 30-50 mg of each tissue in a 1.5 Eppendorf tube containing 500 μL of 2×SDS lysis buffer containing Tris pH 6.8+4% SDS+10% Glycerol were homogenized through ultrasound treatment for 10-15 second per time with 3-6 times until tumor tissue was lysed. […] Proteins of interest were detected using Western Lightning ECL-Plus (Perkin Elmer, Waltham, MA) and visualized by various times (3-120 seconds) of exposure. Actin, tubulin and/or GAPDH were detected as the internal control to normalize total protein loading for each sample.

DDX5, sequence (P17844 whole entry): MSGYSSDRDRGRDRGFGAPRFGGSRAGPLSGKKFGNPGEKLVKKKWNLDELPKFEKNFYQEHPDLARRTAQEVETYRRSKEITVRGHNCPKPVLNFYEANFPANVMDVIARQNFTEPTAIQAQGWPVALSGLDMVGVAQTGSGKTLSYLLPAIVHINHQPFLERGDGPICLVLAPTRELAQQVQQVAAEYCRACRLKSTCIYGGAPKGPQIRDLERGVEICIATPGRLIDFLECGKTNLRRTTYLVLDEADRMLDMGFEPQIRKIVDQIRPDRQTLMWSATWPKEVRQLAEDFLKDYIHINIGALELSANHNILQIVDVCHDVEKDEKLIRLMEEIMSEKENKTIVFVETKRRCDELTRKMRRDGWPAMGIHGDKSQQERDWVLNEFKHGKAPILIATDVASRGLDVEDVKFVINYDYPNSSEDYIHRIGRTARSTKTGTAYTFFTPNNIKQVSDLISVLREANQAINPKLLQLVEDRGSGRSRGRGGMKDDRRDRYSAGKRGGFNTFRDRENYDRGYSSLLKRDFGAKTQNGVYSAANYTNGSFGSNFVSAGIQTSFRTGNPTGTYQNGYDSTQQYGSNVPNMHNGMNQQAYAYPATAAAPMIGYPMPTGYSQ

`CCC1(O)C(=O)OCc2c1cc1n(c2=O)Cc2cc3cc4c(cc3nc2-1)OCO4` (stereo not drawn) [FL118] was tested, and the “binding to other ubiquitin-related proteins” value [1] was “did not bind”, the “AR mRNA” value [2] was “decrease AR mRNA levels” and the “expression of p53, Mdm2, AR, AR-Vs, MdmX, c-Myc” value [2] was “induces the expression of p53 (p21 increase is a hallmark of p53 activation) and Mdm2 but inhibits AR, AR-Vs, MdmX, and c-Myc”. For the same molecule, the antitumor efficacy (DU145 xenografts) was “well inhibited”, the “DDX5 phosphorylation on tyrosine” value (DDX5; 6h) was “eliminates DDX5 phosphorylation” and the DDX5 protein (DDX5; 24h) was “inhibits DDX5 proteins”.
